For one assay, the target named is T1, WT ntd-HSP90 (Homo sapiens, UniProt P07900).
T1 construct: made in house
Kind of assay: NMR titration (15N-labelled protein, amide groups) fitted with TITAN, 1:1 binding model. Conditions: four amide protons, range of values from repeated global fits, 298 K, pH 7.7. How it is done: Ntd-HSP90 in 50 mM Tris-HCl and 50 mM NaCl buffer, pH 7.7, was titrated with 4-(2-Fluorophenyl)-2-pyrimidinamine, 1, (Fig. 1), a 189 Da known ligand of ntd-HSP90 that was kindly provided by AstraZeneca (Göteborg, Sweden). Titrations were performed with three ntd-HSP90 mutants, S50C/D54C, A101C/N105C and T149C/I187C tagged with Lu^3+-CLaNP-5 or Yb^3+-CLaNP-5. The concentrations of S50C/D54C, A101C/N105C T149C/I187C were 20, 103 and 65 µM, respectively, for both diamagnetic and paramagnetic forms of the protein. Concentrations (µM) of 1 for titrations with S50C/D54C, A101C/N105C and T149C/I187C were [0, 39, 59, 88, 132, 198, 296, 444, 667, 1000], [0, 20, 40, 121, 364, 1111] and [0, 40, 89, 200, 442, 665, 1008, 1897], respectively. […] Average CSP were calculated as (ΔH^2 + (ΔC/10)^2)^0.5 for methyl groups and (ΔH^2 + (ΔN/6)^2)^0.5 for amides. PCS were measured using ^1H and for calculations the geometrical average of the proton coordinates in methyl groups were used.
The dissociation constant KD, as well as the dissociation rate constant (kOFF) were calculated with TITAN software (Waudby et al. [2016]) using a 1:1 binding model (A + B ⇆ A − B). […] The WT KD was calculated using a titration performed on the ^15N labelled protein, on the basis of four amide protons (Table S1). […]

For assay [1], the target named is T2, ntd-HSP90 mutant A101C/N105C tagged with CLaNP-5 (Homo sapiens, UniProt P07900, A101C/N105C).
T2 construct: Three double cysteine mutants of the ntd-HSP90 were designed on the surface of the protein; CLaNP-5 (chemical lanthanoid chelate with Lu3+ or Yb3+, attached to the two engineered Cys); made in house
Kind of assay: NMR methyl 13C-1H HSQC titration fitted with TITAN, 1:1 binding model. The settings on record: mutant 101C/105C. How it is done: (§1) Three double cysteine mutants of the ntd-HSP90 were designed on the surface of the protein, S50C/D54C, A101C/N105C and T149C/I187C (Lescanne et al. [2017]). […] The protein was produced labelled with Leu-δ1-δ2/Val-γ1-γ2-[^13CH3] and purified and tagged with CLaNP5 according to a published protocol (Lescanne et al. [2017]). CLaNP-5 was synthesized as described before (Keizers et al. [2007], [2008]).
(§2) Ntd-HSP90 in 50 mM Tris-HCl and 50 mM NaCl buffer, pH 7.7, was titrated with 4-(2-Fluorophenyl)-2-pyrimidinamine, 1, (Fig. 1), a 189 Da known ligand of ntd-HSP90 that was kindly provided by AstraZeneca (Göteborg, Sweden). Titrations were performed with three ntd-HSP90 mutants, S50C/D54C, A101C/N105C and T149C/I187C tagged with Lu^3+-CLaNP-5 or Yb^3+-CLaNP-5. The concentrations of S50C/D54C, A101C/N105C T149C/I187C were 20, 103 and 65 µM, respectively, for both diamagnetic and paramagnetic forms of the protein. Concentrations (µM) of 1 for titrations with S50C/D54C, A101C/N105C and T149C/I187C were [0, 39, 59, 88, 132, 198, 296, 444, 667, 1000], [0, 20, 40, 121, 364, 1111] and [0, 40, 89, 200, 442, 665, 1008, 1897], respectively. The NMR sample volume was 595 µL for all samples, and dilution was neglected, because the biggest volume of ligand solution added was < 5 µL. ^13C-^1H HSQC (Palmer et al. [1991]; Kay et al. [1992]; Schleucher et al. [1994]) spectra were acquired at each titration point, on a Bruker Avance III 800 MHz spectrometer, equipped with a cryogenically cooled TXI-probe head, operating at 298 K. Spectra were processed with nmrpipe (Delaglio et al. [1995]) using the exponential EM apodization function for analysis with TITAN (Waudby et al. [2016]). A similar titration was performed with WT ntd-HSP90 observing the amide groups. Average CSP were calculated as (ΔH^2 + (ΔC/10)^2)^0.5 for methyl groups and (ΔH^2 + (ΔN/6)^2)^0.5 for amides. PCS were measured using ^1H and for calculations the geometrical average of the proton coordinates in methyl groups were used.
(§3) The dissociation constant KD, as well as the dissociation rate constant (kOFF) were calculated with TITAN software (Waudby et al. [2016]) using a 1:1 binding model (A + B ⇆ A − B). TITAN fits both the equilibrium constant (KD) and the dissociation rate constant (kOFF) on the basis of the CSP and line broadening. A global fit of the resonances of five methyl groups (Table S1) was performed and then one at the time was taken out and the fit repeated. The WT KD was calculated using a titration performed on the ^15N labelled protein, on the basis of four amide protons (Table S1). The ranges of values obtained in this way are reported in Table 1 and provide a more realistic error range than the fit error. […] For these two mutants, a 50 µM variation of the KD results in a change of the extrapolated CSP of 0.01 ppm at most, half the error used for the further calculations. For mutant 149C/187C a KD of 50 µM was used to extrapolate the CSP.

In assay [2] the target is T3, ntd-HSP90 mutant S50C/D54C tagged with CLaNP-5 (Homo sapiens, UniProt P07900, D54C/S50C).
T3 construct: Three double cysteine mutants of the ntd-HSP90 were designed on the surface of the protein; CLaNP-5 (chemical lanthanoid chelate with Lu3+ or Yb3+, attached to the two engineered Cys); made in house
The description is as above. Conditions: mutant 50C/54C. The method, then:
as §1, §2, §3

For assay [3], the target named is T4, ntd-HSP90 mutant T149C/I187C tagged with CLaNP-5 (Homo sapiens, UniProt P07900, I187C/T149C).
T4 construct: Three double cysteine mutants of the ntd-HSP90 were designed on the surface of the protein; CLaNP-5 (chemical lanthanoid chelate with Lu3+ or Yb3+, attached to the two engineered Cys); made in house
The assay is described as above. The settings on record: mutant 149C/187C. How it is done:
as §1, §2, §3

The mark [4] stands for this setting: CLaNP-5 tagged, five methyl groups, range of values from repeated global fits, 298 K, pH 7.7.
Where [5] appears, read: CLaNP-5 tagged, five methyl groups, range of values from repeated global fits, 298 K, pH 7.7, read-out: KD.
Where [6] appears, read: single value used to extrapolate CSP, read-out: KD used for the calculation of the 100% bound state CSP.

SMILES strings stand for the structures. Where two headings read alike, the source gives them in different places.

As a reminder, the Kd is a measure of binding affinity in units of concentration. By koff is commonly meant the first-order rate constant of dissociation. A high value points to a short-lived complex. In the case of `Nc1nccc(-c2ccccc2F)n1` [compound 1, 4-(2-Fluorophenyl)-2-pyrimidinamine], the Kd at WT ntd-HSP90 was 160 to 220 µM; in assay [1] (setting [5]), 140 to 171 µM; in assay [1] (setting [6]) it was 150 µM; in assay [2] (setting [5]), 195 to 238 µM; in assay [2] (setting [6]), 200 µM; in assay [3] (setting [5]), 41 to 45 µM. The Kd in assay [3] (single value used to extrapolate CSP, read-out: KD used to extrapolate the CSP) is 50 µM. The koff is 1400 to 1800 s⁻¹ at WT ntd-HSP90, 1080 to 1300 s⁻¹ in assay [1] (setting [4]), 1500 to 2300 s⁻¹ in assay [2] (setting [4]) and 1300 to 1900 s⁻¹ in assay [3] (setting [4]).
